Where two headings read alike, the source gives them in different places. Marks after values point to notes of the source that are not given here.
Legend:
M. incognita = experiment: Greenhouse trial: root galls on cucumber in treated soil; type: in vivo, Meloidogyne incognita; details: for reduction of galls per gram of root compared with the Tween control: 0.1%, Trials 1 & 2
Excerpt: Two weeks after transplant, the plants were harvested.
(§1) The assumptions of the model were checked.
The number of carbons is indicated in parentheses.

[1] = tested on: H. glycines second-stage juveniles; experiment: Microwell assay: previously hatched J2 immersed in compounds, activity and viability; details: for viability reduction compared with the Tween control: following the water rinse (Day 3); for inactive J2: Day 1 and Day 2; for reduction in % viable J2 compared with the Tween control: Day 3 following water rinse
Experimental: The isolate of H. glycines race 3, originally isolated in Maryland, was maintained on soybean (Glycine max cv. ‘Essex’). As previously described (Wen, Y., et al. Plant Disease, 103: 2191-2198 (2019)), the roots were gently rubbed in water to dislodge cysts and mature females. The egg suspensions were then poured through nested sieves (#20 over /#60; pore sizes 850 μm and 250 μm diam., respectively) into a 454 g/liter sucrose solution. After 15 min, the cysts and females and cysts that floated to the top were collected, rinsed in water, and crushed with a rubber stopper on a #60 sieve (250-μm diam. pore size) that was partially submerged in distilled water. The egg suspension was washed through nested #230 over #500 sieves (pore sizes 63 μm and 25-μm diam., respectively). The eggs were collected in distilled water, and J2 hatched as described above.
(§2) Compounds for the studies were purchased from three different companies: methyl benzoate, CAS Number 93-58-3, ≥99% purity; Tween 20, CAS Number: 9005-64-5; Tween 80, CAS Number: 9005-65-6; ethyl benzoate, CAS Number: 93-89-0, natural, ≥99% purity, FCC, FG; vinyl benzoate, CAS Number: 769-78-8, ≥99% purity; n-propyl benzoate, CAS Number: 2315-68-6, 99% purity; n-butyl benzoate, CAS Number: 136-60-7, 99% purity; benzyl benzoate, CAS Number: 120-51-4, natural, ≥99% purity, FCC, FG; methyl 2-methylbenzoate, CAS Number: 89-71-4, 99% purity; methyl 2-chlorobenzoate, CAS Number: 610-96-8, ≥98% purity; methyl 2-methoxybenzoate, CAS Number: 606-45-1, 99% purity and methyl 2-nitrobenzoate, CAS Number: 606-27-9, 98% purity were purchased from Sigma-Aldrich (St. Louis, Mo.). Compounds, iso-butyl benzoate, CAS Number 120-50-3, >98% purity; n-pentyl benzoate, CAS Number: 2049-96-9, ≥98% purity; and n-hexyl benzoate, CAS Number: 6789-88-4, ≥98% purity were purchased from Alfa Aesar (Tewksbury, Mass.). The compounds methyl 3-methoxybenzoate (methyl m-anisate), CAS Number: 5368-81-0; 97% and methyl 3-methylbenzoate (methyl m-toluate), CAS Number: 99-36-5, 97% purity were purchased from TCI America (Portland, Oreg.). All chemicals were used without further purification. Deionized water (DI) containing 1% emulsifier (v/v), Tween 20 and Tween 80, at 1:1 ratio was used to make different VOCs (volatile organic compounds) water solutions and also used as blank control.
(§3) For tests with individual compounds, the concentration of each compound was 0.1% before placement into wells; the final concentration in the wells was 0.095% after addition to eggs or J2 suspended in water. These are reported as 0.1% herein. An exception was Trial 2, M. incognita J2 activity and viability (Table 2): the final concentration was 0.1% after placement in wells. Low concentrations were selected for assays of combined compounds to determine if the combinations would increase nematotoxicity.
(§4) Laboratory assays were conducted in 96-well polystyrene plates following general procedures described in Wen et al. (2019). Each well received approximately 35 J2 (for previously hatched J2 assays) or 35 eggs that each contained either a first-stage juvenile (J1) or a J2. The plates were covered with plastic adhesive sealing film (Excel Scientific, Inc., Victorville Calif.) and then with the plate lids. Parafilm (Bemis, Neenah, Wis.) was used to seal the plates. The nematodes were then incubated at 26° C. […] Following the counts on Day 2, the treatments were removed and the J2 rinsed twice with SDW and incubated in the second rinse. […] Two trials were conducted for each assay.
Statistical analyses: The data were analyzed as either a general linear model using JMP or a generalized linear model for the best distribution to fit the residual using Proc Glimmix (Sas Institute). The assumptions of the model were checked. If not met, then appropriate statistical techniques were used so that data could met the assumptions of the models. In Sas, mean comparisons were done with Sidak adjusted p-values to hold the experiment-wise error at 0.05.

[2] = tested on: M. incognita second-stage juveniles; experiment: as above; details: for mortality at 0.1 %: read-out: nonviable (killed) J2
Experimental: Nematode cultures: As described in Meyer et al. (Meyer, S. L. F., et al., Nematropica, 46: 85-96 (2016)), M. incognita race 1 (originally isolated in Maryland) was maintained in a greenhouse (24° to 29° C.; natural and supplemental lighting combined for a 16-h daylength) on susceptible cayenne pepper (Capsicum annuum) TA-136′ plants. All greenhouse experiments described herein were conducted under the same conditions. Two to three months after pepper plant inoculation, egg masses were picked from roots. Eggs were separated by 5 min immersion in 0.6% sodium hypochlorite, followed by a rinse in sterile distilled water (SDW). To collect second-stage juveniles (J2) for microwell assays, the surface-sterilized eggs were placed in a hatching chamber (Spectra/Mesh Nylon Filter, openings 25-μm-diam.; Spectrum Laboratories Inc., Rancho Dominguez, Calif.) set in an autoclaved dish that was placed on a rotary shaker for 3 days at 35 rpm. For some M. incognita and H. glycines assays, 25 or […] kanamycin monosulfate (Phytotechnology Laboratories, Shawnee Mission, Kans.) was added to the hatching chamber to prevent growth of bacteria. The collected J2 were then rinsed with water to remove the kanamycin monosulfate.
as §2, §3, §4

M. incognita eggs = experiment: Microwell assay: eggs immersed in compounds, hatch and activity of hatched J2; type: in vivo, Meloidogyne incognita; details: 0.1%; for % Active Day 2 / % Active Day 5 / % Active Day 7: J2 hatched from immersed eggs; for Hatch Day 2 / Hatch Day 5 / Hatch Day 7: hatched J2 per well, about 35 eggs per well
Experimental: (§5) All chemicals were used without further purification.
(§6) These are reported as 0.1% herein.
(§7) The nematodes were then incubated at 26° C. […] Two trials were conducted for each assay.
as §1

Heterodera glycines eggs = experiment: as above; type: in vivo; details: for % Active Day 2 / % Active Day 5 / % Active Day 7: J2 hatched from immersed eggs; for inactive J2 that hatched from the eggs: by Day 7; for Hatch Day 2 / Hatch Day 5 / Hatch Day 7: hatched J2 per well, about 35 eggs per well; for pest or weed control at 0.1 %: Heterodera glycines, 168 h, read-out: egg hatch suppression compared with the Tween control
Experimental: as §5, §6, §7, §1

[3] = 0.1%, previously hatched J2 in aqueous solution
[4] = Heterodera glycines, 72 h, read-out: % Viable Day 3 rinsed
[5] = Meloidogyne incognita, 72 h, read-out: % Viable Day 3 rinsed

Row | SMILES | Galls per gram root Trials 1 & 2 (M. incognita; 0.05%, 5,000 eggs per pot) | Galls per gram root Trials 1 & 2 (M. incognita; 0.1%, 5,000 eggs per pot) | % Active Day 1 [1, 3] | % Active Day 2 [1, 3] | viability at 0.1 % [1, 4] | % Active Day 1 [2, 3] | % Active Day 2 [2, 3] | viability at 0.1 % [2, 5] | mortality at 0.1 % ([2]; Meloidogyne incognita, 72 h) | % Active Day 2 (M. incognita eggs) | % Active Day 5 (M. incognita eggs) | % Active Day 7 (M. incognita eggs) | Hatch Day 2 (M. incognita eggs) | Hatch Day 5 (M. incognita eggs) | Hatch Day 7 (M. incognita eggs) | % Active Day 2 (Heterodera glycines eggs; 0.1%) | % Active Day 5 (Heterodera glycines eggs; 0.1%) | % Active Day 7 (Heterodera glycines eggs; 0.1%) | inactive J2 that hatched from the eggs (Heterodera glycines eggs; 0.1%) | Hatch Day 2 (Heterodera glycines eggs; 0.1%) | further results
1 | CCOC(=O)c1ccccc1 [EB, Ethyl benzoate] | 22.6 ^bcd | 34.2 ^abc | 2.7 ^e % | 1.8 ^g % | 4.4% | 0 ^f % | 0 ^d % | 0% | 100% | 0 ^c % | 0 ^e % | 0 ^c % | 2.4 ^cd | 3.9 ^cde | 4.3 ^de | 0 ^e % | 0 ^f % | 0 ^d % | all J2 that hatched from the eggs were inactive | 6.7 ^bcd | reduction of galls per gram of root compared with the Tween control (M. incognita): 53%; % Active Day 1 ([1]; 0.025% final concentration): 73.9 ^a %; viability at 0.025 % [1, 4]: 52.8%; % Active Day 2 ([2]; 0.025% final concentration): 42.9 ^bc %; viability at 0.025 % [2, 5]: 80.2%; Hatch Day 5 (Heterodera glycines eggs; 0.1%): 6.8 ^bcd; Hatch Day 7 (Heterodera glycines eggs; 0.1%): 6.6 ^bcd
2 | COC(=O)c1cccc(C)c1 [M3MB, Methyl 3-methylbenzoate] | 11.2 ^bcdef | 6.8 ^defg | 10.1 ^d % | 7.6 ^g % | 8.5% | 0 ^f % | 0 ^d % | 0% | 100% | 0 ^c % | 0 ^e % | 0 ^c % | 1.9 ^cd | 2.7 ^cde | 2.9 ^de | 0 ^e % | 0 ^f % | 0 ^d % | all J2 that hatched from the eggs were inactive | 5.2 ^cd | % Active Day 1 ([1]; 0.015% final concentration): 71.9 ^a %; viability at 0.015 % [1, 4]: 58.7%; % Active Day 2 ([2]; 0.015% final concentration): 66.8 ^ab %; viability at 0.015 % [2, 5]: 63.7%; Hatch Day 5 (Heterodera glycines eggs; 0.1%): 5.4 ^cd; Hatch Day 7 (Heterodera glycines eggs; 0.1%): 5.1 ^cd; pest or weed control at 0.1 % (Heterodera glycines eggs; 0.1%, Day 7): 64 to 80%
3 | COC(=O)c1ccccc1 [MB, Methyl benzoate] | 16.6 ^bcde | 7.4 ^defg | 0 ^e % | 0 ^h % | 0% | 0 ^f % | 0 ^d % | 0% | 100% | 0 ^c % | 0 ^e % | 0 ^c % | 2.2 ^cd | 3.8 ^cde | 4.7 ^de | 0 ^e % | 0 ^f % | 0 ^d % | all J2 that hatched from the eggs were inactive | 5.4 ^cd | % Active Day 1 ([1]; 0.0095% final concentration): 49.7 ^bc %; % Active Day 2 ([1]; 0.0095% final concentration): 27.9 ^bc %; viability reduction compared with the Tween control ([1]; 0.0095%): 32%; inactive J2 ([1]; 0.1%): 100%; reduction in % viable J2 compared with the Tween control ([1]; 0.1%): 100%; viability at 0.0095 % [1, 4]: 43.8%; % Active Day 2 ([2]; 0.0095% final concentration): 22.4 ^d %; viability at 0.0095 % [2, 5]: 75.6%; Hatch Day 5 (Heterodera glycines eggs; 0.1%): 5.6 ^cd; Hatch Day 7 (Heterodera glycines eggs; 0.1%): 5.5 ^cd; pest or weed control at 0.1 % (Heterodera glycines eggs): 64 to 80%
4 | C=COC(=O)c1ccccc1 [VB, Vinyl benzoate] | 1.8 ^gh | 0.1 ^h | 0 ^e % | 0 ^h % | 0% | 0 ^f % | 0 ^d % | 1% | 100% | 0 ^c % | 0 ^e % | 0 ^c % | 2.7 ^cd | 2.9 ^cde | 2.8 ^de | 0 ^e % | 0 ^f % | 1 ^d % | all J2 that hatched from the eggs were inactive | 3.5 ^d | reduction of galls per gram of root compared with the Tween control (M. incognita): ~100%; % Active Day 1 ([1]; 0.008% final concentration): 42.8 ^bc %; % Active Day 2 ([1]; 0.008% final concentration): 34.7 ^b %; viability reduction compared with the Tween control ([1]; 0.008%): 30%; inactive J2 ([1]; 0.1%): 100%; reduction in % viable J2 compared with the Tween control ([1]; 0.1%): 100%; viability at 0.008 % [1, 4]: 45%; % Active Day 2 ([2]; 0.008% final concentration, Trial 2 only): 22.4 ^cd %; viability at 0.0008 % [2, 5]: 89.6%; viability at 0.008 % [2, 5]: 43.1%; % Viable Day 3 rinsed ([2]; in vivo): did not result in a significant reduction; hatch suppression compared to the Tween control (Heterodera glycines eggs; 0.1%, Day 2): 76%; Hatch Day 5 (Heterodera glycines eggs; 0.1%): 3.5 ^d; Hatch Day 7 (Heterodera glycines eggs; 0.1%): 3.4 ^d; pest or weed control at 0.1 % (Heterodera glycines eggs; 0.1%, Day 7): 80%

Reference: US20220183287A1, “METHODS FOR KILLING PESTS” (The United States of America, as represented by the …, priority 2020, published 2022)
